Assay results taken from patent US8653086B2, “Naphthamides as anticancer agents” (Oregon Health & Science University, priority 2008, dated 2014).
Like-named read-outs stand apart in the source and are kept apart here.

How the values were obtained:
primary rat neurons = test system: primary rat neurons
Description: E18 rat neurons were isolated from Sprague-Dawley rats at 18 days after gestation. The isolated neurons were plated into a 6-well plate coated with poly-D-lysine. On day 5 after plating the neurons, different compounds of indicated concentrations were added (in triplicates) and incubated with the neurons for 48 h. Then the neurons were harvested and the number of live neurons was counted with a hemacytometer after staining with trypan blue. Data were presented as mean±SD.
CREB is a pleiotrophic factor involved in many different cellular processes including neuronal survival. The possibility of neuronal cell death might be a concern for CREB inhibitors in the future clinical applications if they could cross the blood brain barrier. Therefore, the toxicity of naphthol AS-E phosphate (i) or its active form, naphthol AS-E (ii), to primary rat neurons was investigated. Isolated E18 rat neurons were treated with increasing concentrations of naphthol AS-E phosphate (i) or naphthol AS-E (ii) for 48 h. […] At the end of the treatment, the neurons were collected and the number of live neurons were counted using trypan blue exclusion assay (FIG. 3).

A549 cells [1] = test: A549 live cell count, trypan blue; format: cell-based, human; details: 48 h, live cells counted
Description: (§1) (A) Inhibitory effect of CREB-mediated gene transcription by compounds i and ii in HEK 293 cells. Cells were transiently transfected with a plasmid encoding firefly luciferase under the control of three iterative copies of CRE (pCRE-Luc). Compound i or ii was added to the transfected cells in triplicate 30 min prior to the addition of forskolin (Fsk, 10 μM). The luciferase activity was measured using Dual Luciferase Reagent (Promega) and normalized to the co-transfected renilla luciferase (pRL-SV40, Promega). (B) Exponentially growing A549 cells in a 6-well plate (1.5×10^5 cells/well) were treated increasing concentrations of compound i or ii in triplicate for 48 h. […] Data were presented as mean±SD.
(§2) To investigate whether apoptosis was activated upon treatment, A549 cells were treated with either naphthol AS-E phosphate (i, 10 μM) or naphthol AS-E (ii, 10 μM) for 48 h. The cells were then analyzed by flow cytometry after staining with annexin-V and propidium iodide (PI). In this two-dye binding assay, annexin-V will bind phosphatidylserine exposed on the dying apoptotic cell surface while PI will only stain dead cells whose plasma-membrane integrity is compromised. This assay can discriminate intact cells (annexin^−/PI^−), apoptotic cells (annexin^+/PI^−) and necrotic or late apoptotic cells (annexin^+/PI^+).

[2] = Hydrolysis of naphthol AS-E phosphate in tissue culture media (DMEM), HPLC
Description: (A) Representative HPLC chromatograms of aliquots of the incubation mixture containing naphthol AS-E phosphate (i, 500 μM), 1-naphthalenemethanol (1 mM) and DMEM with 10% FBS at different time points. […] 1-Naphthalenemethanol was included as an internal standard. The minor peaks on the chromatograms are components from DMEM, which contains various amino acids, vitamins and carbohydrates. (B) Time-dependent increases of naphthol AS-E during the hydrolysis of naphthol AS-E phosphate. The data were extracted from the experiment presented in (A). The concentration of naphthol AS-E was determined based on the calibration curve shown in (C).
Napthol AS-E phosphate was incubated with tissue culture media (Dulbecco's Modified Eagle Medium, DMEM) containing 10% fetal bovine serum (FBS) at 37° C. along with an internal standard, 1-naphthalenemethanol. The hydrolysis of napthol AS-E phosphate was then monitored by reverse phase HPLC at various time points.

[3] = test system: CREB-mediated gene transcription; test: CRE firefly luciferase reporter assay in HEK 293 cells; format: cell-based; details: forskolin 10 μM, normalized to renilla luciferase
Description: as §1
In this assay, HEK 293 cells were transiently transfected with a luciferase reporter plasmid which expresses firefly luciferase under the control of three copies of CREB-response element (CRE). Additionally, an internal control plasmid constitutively expressing renilla luciferase was co-transfected to normalize transfection efficiency across the wells. The inhibition flirt-fly luciferase transcription seen in HEK 293 cells by compound i was not due to cell death because the firefly luciferase activity was normalized to renilla luciferase activity and the number of live cells after compound treatment was the same for all the different concentrations tested.

A549 cells [4] = test: A549 apoptosis, annexin-V/PI flow cytometry and PARP cleavage; format: cell-based, human; details: for percentage of cells undergoing apoptosis: 10 μM, 48 h, vehicle 6.3%; for cleavage of poly (ADP-ribose) polymerase (PARP): A549 cells treated with compound
Description: as §2

[5] = E18 rat neurons, 48 h, naphthols up to 10 μM, CPT positive control

SMILES	neuronal cell death (primary rat neurons; [5])	neuronal cell death (primary rat neurons)	A549 cell proliferation (A549 cells [1])	hydrolysis of phosphate i to naphthol ii after 25-h incubation ([2]; DMEM with 10% FBS, 37° C.)	period of constant rate of increase of naphthol AS-E ([2]; DMEM with 10% FBS, initial zero-order kinetics)	hydrolysis in tissue culture media without FBS ([2]; DMEM without FBS, 24 h)	inhibition of CREB-mediated gene transcription [3]	percentage of cells undergoing apoptosis (A549 cells [4])	cleavage of poly (ADP-ribose) polymerase (PARP) (A549 cells [4])
CC[C@@]1(O)C(=O)OCc2c1cc1n(c2=O)Cc2cc3ccccc3nc2-1 [CPT, camptothecin]	killed most of the neurons	–	–	–	–	–	–	–	–
O=C(Nc1ccc(Cl)cc1)c1cc2ccccc2cc1OP(=O)(O)O [naphthol AS-E phosphate]	–	no significant neuronal cell death	inhibited A549 cell proliferation	complete hydrolysis	> 8.5 h	did not generate any hydrolysis product	strongly inhibited	22.7%	detected
O=C(Nc1ccc(Cl)cc1)c1cc2ccccc2cc1O [naphthol AS-E]	no significant neuronal cell death	–	inhibited A549 cell proliferation	–	–	–	–	19.8%	detected
